Source: paper PMC5612938, “A multiple biomarker assay for quality assessment of botanical drugs using a versatile microfluidic chip” (Scientific Reports, 2017)

Key:
ACE (from rabbit lung) = molecular target: T1, ACE (from rabbit lung) (Oryctolagus cuniculus, UniProt P12822); experiment: on-chip affinity screening, binding degree by LC-MS peak area vs protein-free control (ACE); conditions: for ACE; [(As − Ac)/As] × 100, sample vs protein-free control, EIC peak area
T1 construct: ACE (from rabbit lung); purchased Sigma-Aldrich; host or cells: rabbit lung
T1 sequence (P12822 34-1310): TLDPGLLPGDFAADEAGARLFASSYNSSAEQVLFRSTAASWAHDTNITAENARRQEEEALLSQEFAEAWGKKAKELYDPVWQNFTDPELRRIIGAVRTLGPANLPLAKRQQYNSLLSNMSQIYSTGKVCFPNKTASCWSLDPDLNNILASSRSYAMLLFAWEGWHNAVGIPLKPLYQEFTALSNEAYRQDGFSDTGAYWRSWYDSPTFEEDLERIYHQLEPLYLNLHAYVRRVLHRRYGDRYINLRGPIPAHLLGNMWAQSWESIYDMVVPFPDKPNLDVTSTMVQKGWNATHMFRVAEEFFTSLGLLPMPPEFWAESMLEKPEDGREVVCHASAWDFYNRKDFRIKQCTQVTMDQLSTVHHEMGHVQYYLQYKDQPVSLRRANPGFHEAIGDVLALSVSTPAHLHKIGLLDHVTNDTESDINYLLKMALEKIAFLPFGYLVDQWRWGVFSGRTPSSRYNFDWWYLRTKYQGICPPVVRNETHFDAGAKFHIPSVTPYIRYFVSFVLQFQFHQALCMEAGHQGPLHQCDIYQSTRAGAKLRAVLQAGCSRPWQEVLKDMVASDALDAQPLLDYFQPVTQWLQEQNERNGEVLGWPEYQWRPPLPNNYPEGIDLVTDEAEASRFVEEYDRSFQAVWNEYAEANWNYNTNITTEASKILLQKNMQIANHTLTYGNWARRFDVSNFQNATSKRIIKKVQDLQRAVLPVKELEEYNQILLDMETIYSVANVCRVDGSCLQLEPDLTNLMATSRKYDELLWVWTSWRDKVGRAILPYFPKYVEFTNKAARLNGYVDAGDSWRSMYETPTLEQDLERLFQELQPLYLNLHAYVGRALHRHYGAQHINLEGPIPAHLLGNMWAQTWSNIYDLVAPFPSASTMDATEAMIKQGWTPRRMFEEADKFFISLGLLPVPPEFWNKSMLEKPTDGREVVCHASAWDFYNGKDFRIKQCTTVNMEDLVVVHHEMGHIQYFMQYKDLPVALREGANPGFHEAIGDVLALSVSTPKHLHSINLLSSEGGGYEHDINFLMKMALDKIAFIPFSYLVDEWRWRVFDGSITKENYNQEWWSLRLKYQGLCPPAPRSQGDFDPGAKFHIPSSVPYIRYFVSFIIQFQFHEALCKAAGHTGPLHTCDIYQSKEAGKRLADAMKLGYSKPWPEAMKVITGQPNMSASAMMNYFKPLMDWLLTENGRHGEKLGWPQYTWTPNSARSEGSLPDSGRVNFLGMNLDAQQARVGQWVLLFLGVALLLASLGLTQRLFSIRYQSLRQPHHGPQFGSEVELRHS
From the text: (§1) In addition to quality assessment, the microfluidic chip can also function as “affinity chromatography” to identify bioactive constituents from botanical drugs in a convenient and efficient manner. After the bioassay, the bound phytochemicals were dissociated from the enzymes and accurately identified by LC-MS. The material used for the chambers in microfluidic system, polydimethylsiloxane (PDMS), is apt to adsorb small molecules nonspecifically, thus a protein-free control was applied to reflect the degree of nonspecific binding of compounds to the chip. Peak areas were obtained from the extracted ion chromatography (EIC) in an ion-trap mass spectrometry (IT-MS), and binding degree (binding degree % = [(As − Ac)/As] × 100, where As and Ac were the peak area in the sample and control, respectively) was calculated to indicate binding specificity. […] All these peaks were unambiguously confirmed via comparisons with chemical standards in terms of retention time and mass spectra (Table 2), and five thrombin inhibitors (danshensu, salvianolic acid B, salvianolic acid C, rosmarinic acid and ginsenoside Rg1) and six ACE inhibitors (astragaloside IV, ononin, formononetin, calycosin, danshensu and salvianolic acid B) were preliminarily identified. […] Enzyme inhibition assays of these hit compounds were then performed to verify the screening results. […] Compounds showing an inhibition rate over 70% were subjected to IC50 measurement.
(§2) MBs (10 mg/mL) were diluted 10 times in PB or Tris-HCl buffer, and 10 μL of the diluted MBs (1 mg/mL) were injected into one channel of the chip using a syringe infusion pump (Harvard Apparatus, USA) and retained by an external magnet. Then, 10 μL of thrombin or ACE solution was added and incubated with MBs for two hours at room temperature to form enzyme-MB complexes. The magnet was manually controlled to move MBs back and forth to enhance the ratio of reaction. Subsequently, MBs were washed twice in assay buffer and magnetically transferred to the other channel through the fluidic bridge, whose opening and closing was controlled by a pneumatic valve. Next, 10 μL of sample solutions of tested drug and 10 μL of enzymatic substrate were sequentially infused to the channel by the pump and incubated with the enzyme. When the enzymatic reaction was finished, the MBs were retained in the channel, and air was injected into the channel from the inlet using a syringe to push all the reacted solution to a 384-well plate. The absorbance of the solution was then monitored at 405 nm (for S-2238) or 340 nm (for FAPGG) using an Infinite F200 spectrophotometer (Tecan, Männedorf, Switzerland). Moreover, after detection, the reaction channel was washed three times by assay buffer to remove unbound constituents. 20 μL of 80% aqueous methanol was then injected and incubated with MBs for one hour to dissociate the bound constituents. The resulting solutions of replicates were combined, evaporated by a centrifugal evaporator, reconstituted in 80% aqueous methanol, centrifuged at 10,000 rpm for 10 min, and analyzed by LC-MS for chemical identification.
An Agilent 1100 HPLC system (Agilent Technologies, Waldbronn, Germany) coupled with an LCQ Deca XP^plus IT-MS (Thermo Finnigan, San Jose, CA, USA) equipped with an electrospray ionization (ESI) interface was employed for structure elucidation of the bounded constituents. The analysis was performed in negative ionization mode under following operation parameters: scan range m/z 100–1500; capillary voltage −15 V; source voltage −3 kV; capillary temperature 350 °C; sheath gas (N2) 60 arb; auxiliary gas (N2) 20 arb.

[1] = molecular target: T2, Thrombin (from human plasma) (Homo sapiens, UniProt P00734); experiment: on-chip affinity screening, binding degree by LC-MS peak area vs protein-free control (thrombin); conditions: for thrombin; [(As − Ac)/As] × 100, sample vs protein-free control, EIC peak area
T2 construct: Thrombin (from human plasma); purchased Sigma-Aldrich; host or cells: human plasma
From the text: as §1, §2
An Agilent 1100 HPLC system (Agilent Technologies, Waldbronn, Germany) coupled with an LCQ Deca XP^plus IT-MS (Thermo Finnigan, San Jose, CA, USA) equipped with an electrospray ionization (ESI) interface was employed for structure elucidation of the bounded constituents. […]

| SMILES | Binding degree (%) (ACE (from rabbit lung)) | Binding degree (%) [1] [%] |
| --- | --- | --- |
| O=C(/C=C/c1ccc(O)c2c1[C@H](C(=O)O[C@H](Cc1ccc(O)c(O)c1)C(=O)O)[C@@H](c1ccc(O)c(O)c1)O2)O[C@H](Cc1ccc(O)c(O)c1)C(=O)O [Salvianolic acid B] | 41.3 | 34.9 |
| O=C(O)C(O)Cc1ccc(O)c(O)c1 (stereo not shown) [Danshensu] | 57.2 | 50.9 |
